Laboratory results as given in paper PMC5484777 (Journal of medicinal chemistry, 2016).
Entries after “also recorded” stand apart in the source; their conditions may differ.

Columns and labels:
[1] = target: GluN1/2A receptors (Rattus norvegicus, UniProt P35439+Q00959); format: cell-based
[2] = target: GluN1/2A receptors (Rattus norvegicus, UniProt Q00959); format: cell-based; details: ratio est Ki GluN1/2B / GluN1/2A
[3] = target: GluN1/2B receptors (Rattus norvegicus, UniProt P35439+Q00960); format: cell-based
[4] = target: GluN1/2C receptors (Rattus norvegicus, UniProt P35439+Q00961); format: cell-based
[5] = target: GluN1/2D receptors (Rattus norvegicus, UniProt P35439+Q62645); format: cell-based
[6] = tested on: GluN1/2A; details: cited from earlier work
[7] = Ex vivo brain autoradiography; format: in vivo, female athymic nude mice; details: serial brain sections
[8] = Ex vivo brain biodistribution and autoblockade of [11C]11e; format: in vivo, CD-1 mice; details: 15–75 min uptake, IV, mice (Figure 4A,B)
[9] = In vivo PET-CT imaging; design: species or system female athymic nude mice; details: intravenous bolus, dynamic PET, mice

Chain of GluN1/2D receptors (Q62645 28-1323, other chains not shown): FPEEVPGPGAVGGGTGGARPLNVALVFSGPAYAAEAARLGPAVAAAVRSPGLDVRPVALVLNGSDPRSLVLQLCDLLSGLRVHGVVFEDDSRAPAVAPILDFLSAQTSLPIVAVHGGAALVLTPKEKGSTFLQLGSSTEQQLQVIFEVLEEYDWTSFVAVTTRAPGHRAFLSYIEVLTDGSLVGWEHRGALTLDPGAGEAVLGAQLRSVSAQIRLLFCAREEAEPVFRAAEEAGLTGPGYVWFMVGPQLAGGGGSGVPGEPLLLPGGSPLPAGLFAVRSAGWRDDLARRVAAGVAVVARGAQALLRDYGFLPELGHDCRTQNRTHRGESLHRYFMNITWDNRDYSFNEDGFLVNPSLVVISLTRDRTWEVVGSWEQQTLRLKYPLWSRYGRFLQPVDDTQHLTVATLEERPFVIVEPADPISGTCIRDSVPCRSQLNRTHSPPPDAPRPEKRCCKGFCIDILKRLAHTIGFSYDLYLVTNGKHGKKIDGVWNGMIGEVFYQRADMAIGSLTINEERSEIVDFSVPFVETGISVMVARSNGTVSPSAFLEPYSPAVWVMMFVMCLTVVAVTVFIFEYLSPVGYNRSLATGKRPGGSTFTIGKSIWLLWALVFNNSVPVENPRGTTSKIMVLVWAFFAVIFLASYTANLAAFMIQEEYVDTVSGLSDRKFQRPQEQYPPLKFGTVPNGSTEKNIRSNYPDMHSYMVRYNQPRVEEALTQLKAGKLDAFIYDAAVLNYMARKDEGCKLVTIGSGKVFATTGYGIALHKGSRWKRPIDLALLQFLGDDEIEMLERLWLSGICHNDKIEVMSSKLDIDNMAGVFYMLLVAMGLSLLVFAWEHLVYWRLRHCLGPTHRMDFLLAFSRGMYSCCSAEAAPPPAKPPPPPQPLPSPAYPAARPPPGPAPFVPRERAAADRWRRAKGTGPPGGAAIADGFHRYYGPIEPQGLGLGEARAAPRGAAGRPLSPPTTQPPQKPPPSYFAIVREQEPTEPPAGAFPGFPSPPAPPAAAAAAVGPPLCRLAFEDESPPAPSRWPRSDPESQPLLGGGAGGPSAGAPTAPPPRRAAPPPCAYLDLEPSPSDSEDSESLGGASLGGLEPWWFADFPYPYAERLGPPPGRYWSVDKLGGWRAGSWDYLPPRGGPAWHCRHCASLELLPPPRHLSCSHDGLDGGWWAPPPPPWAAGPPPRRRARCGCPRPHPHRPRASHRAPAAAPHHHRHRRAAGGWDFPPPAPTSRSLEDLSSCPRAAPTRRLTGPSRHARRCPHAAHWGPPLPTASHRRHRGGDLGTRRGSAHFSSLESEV
Chain of GluN1/2C receptors (Q00961 20-1237, other chains not shown): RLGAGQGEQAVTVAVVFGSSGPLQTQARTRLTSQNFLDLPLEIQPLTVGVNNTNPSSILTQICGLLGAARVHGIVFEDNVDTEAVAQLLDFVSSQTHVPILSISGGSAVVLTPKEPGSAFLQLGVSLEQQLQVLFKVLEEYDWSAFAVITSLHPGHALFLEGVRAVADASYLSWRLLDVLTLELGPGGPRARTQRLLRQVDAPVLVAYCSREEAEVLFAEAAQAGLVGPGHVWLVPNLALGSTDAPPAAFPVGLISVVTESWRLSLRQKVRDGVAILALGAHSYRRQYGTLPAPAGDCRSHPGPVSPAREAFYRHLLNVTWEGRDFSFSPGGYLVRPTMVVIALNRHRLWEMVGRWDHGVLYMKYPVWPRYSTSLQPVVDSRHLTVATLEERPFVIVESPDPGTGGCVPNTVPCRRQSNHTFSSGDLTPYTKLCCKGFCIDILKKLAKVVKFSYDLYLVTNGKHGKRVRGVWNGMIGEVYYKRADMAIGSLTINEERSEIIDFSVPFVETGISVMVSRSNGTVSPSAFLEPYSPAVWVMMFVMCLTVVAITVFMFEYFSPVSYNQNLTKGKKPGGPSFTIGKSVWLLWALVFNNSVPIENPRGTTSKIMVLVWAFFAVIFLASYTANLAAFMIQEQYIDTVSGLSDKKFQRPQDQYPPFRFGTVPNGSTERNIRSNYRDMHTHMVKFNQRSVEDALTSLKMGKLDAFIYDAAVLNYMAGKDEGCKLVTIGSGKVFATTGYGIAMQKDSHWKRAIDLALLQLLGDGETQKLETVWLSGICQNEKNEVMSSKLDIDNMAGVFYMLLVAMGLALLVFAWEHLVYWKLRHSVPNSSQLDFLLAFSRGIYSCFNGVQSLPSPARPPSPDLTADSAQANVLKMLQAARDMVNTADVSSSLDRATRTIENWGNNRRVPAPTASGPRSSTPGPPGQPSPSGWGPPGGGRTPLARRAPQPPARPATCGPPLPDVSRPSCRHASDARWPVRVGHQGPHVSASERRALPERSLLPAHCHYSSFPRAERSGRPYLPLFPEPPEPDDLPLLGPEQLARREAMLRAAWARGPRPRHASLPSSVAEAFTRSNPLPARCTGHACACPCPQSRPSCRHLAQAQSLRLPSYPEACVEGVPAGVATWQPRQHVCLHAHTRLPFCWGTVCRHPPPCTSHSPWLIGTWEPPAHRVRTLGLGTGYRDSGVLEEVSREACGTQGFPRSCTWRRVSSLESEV
Chain of GluN1/2B receptors (Q00960 27-1482, other chains not shown): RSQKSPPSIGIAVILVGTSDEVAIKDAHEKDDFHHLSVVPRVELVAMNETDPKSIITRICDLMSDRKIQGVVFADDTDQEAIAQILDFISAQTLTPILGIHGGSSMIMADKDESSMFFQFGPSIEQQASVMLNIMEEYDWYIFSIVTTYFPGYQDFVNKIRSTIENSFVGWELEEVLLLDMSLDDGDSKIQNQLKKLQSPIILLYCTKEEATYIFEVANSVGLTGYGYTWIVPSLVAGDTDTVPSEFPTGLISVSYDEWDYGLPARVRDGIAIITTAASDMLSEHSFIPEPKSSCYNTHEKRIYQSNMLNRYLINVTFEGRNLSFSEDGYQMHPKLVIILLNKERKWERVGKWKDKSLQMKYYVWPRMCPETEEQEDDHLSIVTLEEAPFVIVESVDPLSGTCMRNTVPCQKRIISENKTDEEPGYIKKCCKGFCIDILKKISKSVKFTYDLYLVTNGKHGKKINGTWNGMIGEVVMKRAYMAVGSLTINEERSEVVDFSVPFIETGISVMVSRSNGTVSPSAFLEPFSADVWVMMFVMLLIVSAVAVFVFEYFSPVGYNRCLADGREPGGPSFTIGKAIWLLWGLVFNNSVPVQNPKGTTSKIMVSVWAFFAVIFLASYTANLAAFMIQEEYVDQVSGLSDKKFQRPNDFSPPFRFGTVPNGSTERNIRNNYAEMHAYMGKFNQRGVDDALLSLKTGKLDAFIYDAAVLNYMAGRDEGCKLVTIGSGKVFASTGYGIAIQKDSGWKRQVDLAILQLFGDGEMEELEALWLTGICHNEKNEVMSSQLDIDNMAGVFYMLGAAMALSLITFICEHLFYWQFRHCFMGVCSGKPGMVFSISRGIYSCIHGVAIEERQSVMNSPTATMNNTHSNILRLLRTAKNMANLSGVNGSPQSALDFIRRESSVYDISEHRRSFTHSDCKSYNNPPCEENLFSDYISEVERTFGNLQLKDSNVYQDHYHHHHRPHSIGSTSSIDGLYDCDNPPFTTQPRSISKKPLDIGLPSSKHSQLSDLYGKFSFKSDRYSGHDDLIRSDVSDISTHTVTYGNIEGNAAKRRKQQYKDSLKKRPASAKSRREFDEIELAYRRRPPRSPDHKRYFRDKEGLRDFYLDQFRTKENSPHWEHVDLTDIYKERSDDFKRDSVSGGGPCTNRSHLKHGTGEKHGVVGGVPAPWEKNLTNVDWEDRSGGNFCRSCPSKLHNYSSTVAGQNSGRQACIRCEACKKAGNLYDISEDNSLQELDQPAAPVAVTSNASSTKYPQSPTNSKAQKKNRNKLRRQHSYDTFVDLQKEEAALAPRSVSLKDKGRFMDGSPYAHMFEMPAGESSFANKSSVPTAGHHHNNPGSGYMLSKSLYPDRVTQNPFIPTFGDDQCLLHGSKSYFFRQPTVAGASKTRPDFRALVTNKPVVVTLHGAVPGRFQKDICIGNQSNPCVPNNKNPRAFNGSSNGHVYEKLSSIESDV

## Cc1ccc(N2N=C(C(=O)O)C[C@@H]2C[C@@H](N)C(=O)O)cc1 [4e, (S)-5-((R)-2-Amino-2-carboxyethyl)-1-p-tolyl-4,5-dihydro-1H-pyrazole-3-carboxylic Acid]
[1]
  IC50: 180 ± 10 nM
  Ki: 48 ± 3 nM
[2]
  estimated Ki fold higher at GluN1/2B compared to GluN1/2A (selectivity): 5.3 fold
[3]
  IC50: 690 ± 50 nM
  Ki: 250 ± 20 nM
[4]
  IC50: 380 ± 20 nM
  Ki: 96 ± 5 nM
[5]
  Ki: 440 ± 20 nM

## C[C@H](N[C@@H](c1cccc2[nH]c(=O)c(=O)[nH]c12)P(=O)(O)O)c1ccc(Br)cc1 [NVP-AAM077, [(R)-[(S)-1-(4-bromophenyl)-ethylamino]-(2,3-dioxo-1,2,3,4-tetrahydroquinoxalin-5-yl)-methyl]-phosphonic acid]
[6]
  binding affinity fold higher for GluN1/2A compared to GluN1/2B: 5.2 fold

## N[C@H](C[C@H]1CC(C(=O)O)=NN1c1ccc([125I])cc1)C(=O)O [[^125I]4d, (S)-5-((R)-2-Amino-2-carboxyethyl)-1-(4-[^125I]iodophenyl)-4,5-dihydro-1H-pyrazole-3-carboxylic Acid]
[7]; 60 min conscious uptake
  brain uptake (ex vivo autoradiography): no evidence of brain uptake

## N[C@H](C[C@H]1CC(C(=O)O)=NN1c1ccc(Cl)cc1)C(=O)O [4b, (S)-5-((R)-2-Amino-2-carboxyethyl)-1-(4-chlorophenyl)-4,5-dihydro-1H-pyrazole-3-carboxylic Acid]
[1]
  IC50: 98 ± 4 nM
  Ki: 27 ± 1 nM
[2]
  estimated Ki fold higher at GluN1/2B compared to GluN1/2A (selectivity): 4.0 fold
[3]
  IC50: 280 ± 20 nM
  Ki: 110 ± 10 nM
[4]
  IC50: 180 ± 10 nM
  Ki: 44 ± 2 nM
[5]
  IC50: 520 ± 20 nM
  Ki: 160 ± 10 nM

## COC(=O)C1=NN(c2ccc([125I])cc2)[C@@H](C[C@@H](N)C(=O)OC)C1 [[^125I]11d, Methyl (S)-5-((R)-2-Amino-3-methoxy-3-oxopropyl)-1-(4-[^125I]-iodophenyl)-4,5-dihydro-1H-pyrazole-3-carboxylate]
[7]; 40 min conscious uptake
  brain uptake (ex vivo autoradiography): brain region-selective uptake

## COC(=O)C1=NN(c2ccc([11CH3])cc2)[C@@H](C[C@@H](NC(=O)OC(C)(C)C)C(=O)OC)C1 [[^11C]11e, Methyl (S)-5-((R)-2-((tert-Butoxycarbonyl)amino)-3-methoxy-3-oxopropyl)-1-(4-[^11C]methylphenyl)-4,5-dihydro-1H-pyrazole-3-carboxylate]
[8]
  uptake in brain regions: below 1.5 % ID/g

## N[C@H](C[C@H]1CC(C(=O)O)=NN1c1ccc(F)cc1)C(=O)O [4a, (S)-5-((R)-2-Amino-2-carboxyethyl)-1-(4-fluorophenyl)-4,5-dihydro-1H-pyrazole-3-carboxylic Acid]
[1]
  IC50: 160 ± 10 nM
  Ki: 43 ± 2 nM
[2]
  estimated Ki fold higher at GluN1/2B compared to GluN1/2A (selectivity): 7.6 fold
[3]
  IC50: 860 ± 10 nM
  Ki: 330 ± 40 nM
[4]
  IC50: 920 ± 20 nM
  Ki: 230 ± 10 nM
[5]
  IC50: 920 ± 20 nM
  Ki: 290 ± 10 nM

## N[C@H](C[C@H]1CC(C(=O)O)=NN1c1ccc(Br)cc1)C(=O)O [4c, (S)-5-((R)-2-Amino-2-carboxyethyl)-1-(4-bromophenyl)-4,5-dihydro-1H-pyrazole-3-carboxylic Acid]
[1]
  IC50: 91 ± 4 nM
  Ki: 25 ± 1 nM
[3]
  IC50: 250 ± 20 nM
  Ki: 94 ± 7 nM
[4]
  IC50: 190 ± 10 nM
  Ki: 47 ± 3 nM
[5]
  IC50: 630 ± 40 nM
  Ki: 200 ± 10 nM

## COC(=O)C1=NN(c2ccc([124I])cc2)[C@@H](C[C@@H](N)C(=O)OC)C1 [[^124I]11d, Methyl (S)-5-((R)-2-Amino-3-methoxy-3-oxopropyl)-1-(4-[^124I]-iodophenyl)-4,5-dihydro-1H-pyrazole-3-carboxylate]
[9]
  brain uptake by in vivo PET imaging: below the threshold of detection; also recorded: no observable brain uptake

## N[C@H](C[C@H]1CC(C(=O)O)=NN1c1ccc(I)cc1)C(=O)O [4d, (S)-5-((R)-2-Amino-2-carboxyethyl)-1-(4-iodophenyl)-4,5-dihydro-1H-pyrazole-3-carboxylic Acid]
[1]
  IC50: 910 ± 80 nM
  Ki: 250 ± 20 nM
[3]
  IC50: 700 ± 40 nM
  Ki: 270 ± 20 nM
[4]
  IC50: 560 ± 20 nM
  Ki: 140 ± 10 nM
